Data from patent US11510899B2, “RTX toxin production inhibitor and composition for treating symptom of vibrio infection by using same” (priority 2018, dated 2022).

Key:
[1] = target: T1, HlyU (Vibrio vulnificus, UniProt A0A3Q0L222); experiment: High-throughput screening with E. coli reporter strain (pKK1306 + pZW1608 lux reporter); assay type: cell-based
T1 sequence (A0A3Q0L222 1-98): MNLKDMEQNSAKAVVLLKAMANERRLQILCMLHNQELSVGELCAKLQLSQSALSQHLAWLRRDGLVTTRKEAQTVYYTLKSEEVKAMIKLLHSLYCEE
Source text: Meanwhile, to perform E. coli reporter strain construction and high-throughput screening, a pKK1306 plasmid cloned to induce wild-type hlyU genes by arabinose was constructed. The reporter plasmid is pZW1608, in which the promoter of the VVMO6_00539 gene, expression of which is directly repressed by HlyU, is cloned in front of the bioluminescence operon (lux operon). These two plasmids were simultaneously transformed into E. coli DH5 to construct an E. coli reporter strain (FIG. 1). FIG. 1 is a schematic diagram illustrating the strategy used to screen selective inhibitors of HlyU.
For the screening, approximately 8400 low-molecular-weight compounds were obtained from Korea Compound Bank and used in this experiment. […] When the absorbance at 600 nm (A600) of the culture solution, which was cultured at 37° C., reached 0.5, 100 μl of the culture solution was transferred to a 96-well black plate. […] While culturing at 37° C., the growth and bioluminescence of the reporter strain were measured using an Infinite™ M200 microplate reader (Tecan, Mannedorf, Switzerland). The relative luminescence unit (RLU) was calculated through normalization by division of the measured luminescence value by the absorbance. RLU=luminescence/absorbance [Equation 1] […]

[2] = tested on: INT-407 cells; experiment: In-vitro cytotoxicity, LDH release assay; assay type: cell-based, human; settings: 1 to 500 μM, 3 hours, 5% Triton-X 100 = 100%
Procedure: In order to investigate the in-vitro cytotoxicity of CM2660, human epithelial cells, INT-407 cells were treated with Vibrio vulnificus (control) of MOI 10, and 1 to 500 μM of CM2660 or DMSO. After 3 hours, LDH release assay was performed and cytotoxicity was measured (FIG. 21). […] Cytotoxicity (%) was calculated with respect to the cytotoxicity obtained through treatment of 5% Triton-X 100 as 100%.

[3] = target: T1, HlyU; experiment: Mass spectrometry / X-ray crystallography of HlyU protein treated with CM2660; assay type: binding
Procedure: In order to more accurately identify the HlyU inhibition mechanism of CM2660, the crystal structure of CM2660-treated HlyU protein was detected by X-ray crystallography and compared with that of the HlyU protein not treated with CM2660 (FIG. 17, FIG. 18).
In order to identify this in more detail, samples of HlyU protein treated with CM2660 were analyzed using mass spectrometry.

[4] = tested on: Vibrio vulnificus; experiment: Growth of Vibrio vulnificus; assay type: cell-based; settings: 20-500 μM CM2660
Procedure: While culturing at 30° C., the growth of the reporter strain and the degree of bioluminescence thereof were measured in the same manner as in Example 1, and the RLU was calculated. The RLU of the DMSO-treated control group was expressed as 100% HlyU activity. HlyU activity was plotted according to the concentration of the derivative compound, and EC50 (half maximal effective concentration) was calculated using GraphPad Prism 7.0 (GraphPad Software, San Diego, Calif.) (FIG. 6, Table 2).
Therefore, Vibrio vulnificus was treated with various concentrations of CM2660, and the growth of Vibrio vulnificus was observed (FIG. 20).

[5] = tested on: Vibrio parahaemolyticus; experiment: Cytotoxicity of Vibrio parahaemolyticus; assay type: cell-based; settings: CM2660 at different concentrations
[6] = tested on: rtxA, vvhA and plpA; experiment: qRT-PCR of virulence genes activated by HlyU in Vibrio vulnificus; assay type: cell-based; settings: 20 μM
Procedure: The effect of CM2660 on the expression of rtxA, vvhA and plpA, the virulence genes of Vibrio vulnificus activated by HlyU, was investigated. […] Then, the culture solution were sampled at the time at which the expression of each gene was mainly controlled by HlyU (A600=0.5 for rtxA and vvhA, and A600=1.0 for plpA), RNA was purified, and quantitative real-time polymerase chain reaction (quantitative Real-Time (qRT)-PCR) was performed (FIGS. 10 to 12).

[7] = tested on: Vibrio vulnificus; experiment: Mouse infection with Vibrio vulnificus, survival; assay type: in vivo; settings: 1.4 mg/kg mixed with bacteria, subcutaneous, ICR female mice, vs DMSO
Procedure: In order to determine whether or not CM2660 also decreases the virulence of Vibrio vulnificus in vivo using 7-week-old ICR female mice, Vibrio vulnificus cultured at A600=0.5 at 30° C. was prepared. This was mixed with DMSO (10%) or CM2660 (1.4 mg/kg of mouse body weight) and the resulting mixture was subcutaneously injected into the back of mice anesthetized with isoflurane. In addition, only CM2660 was injected subcutaneously in order to determine the in-vivo toxicity of CM2660 (FIG. 22). FIG. 22 is a graph showing the results of observation of the expression of in-vivo toxicity of Vibrio vulnificus after injecting CM2660 into mice.

[8] = tested on: Vibrio vulnificus; experiment: Hemolytic activity of Vibrio vulnificus against erythrocytes; assay type: cell-based; settings: culture supernatant at A600=1.0, different concentrations
Procedure: Meanwhile, the effect of CM2660 on the hemolytic activity against erythrocytes of Vibrio vulnificus was investigated. For this purpose, Vibrio vulnificus was cultured at 30° C. and treated with CM2660 at different concentrations at A600=0.2. […] The filtered supernatant was concentrated and mixed with erythrocytes diluted to 10% in PBS and cultured at 37° C. Hemolytic activity against erythrocytes was quantified by measuring absorbance at 540 nm (A540). A sample completely dissolved by treatment with 5% Triton X-100 instead of the supernatant was used as a positive control group and a sample using LBS medium was used as a negative control group.
Hemolytic activity was calculated using the following Equation 2, and is shown as a percentage (%) in FIG. 14.

O=C(C#Cc1ccccc1)Nc1scc2c1c(=O)oc1ccccc12 [CM2660, N-(4-oxo-4H-thieno[3,4-c]chromen-3-yl)-3-phenylprop-2-ynamide]
bioluminescence of E. coli reporter strains ([1]; 20 μM compound, 0.0002% arabinose, vs DMSO): significantly increased | HlyU inhibitory effect among the seven screened compounds ([1]; Example 1, E. coli and Vibrio reporter strains): best effect | cytotoxicity to INT-407 cells [2]: almost no cytotoxicity | covalent binding to cysteine residue at position 30 of HlyU [3]: covalently bound | in-vitro growth of Vibrio vulnificus [4]: no significant effect | cytotoxicity of Vibrio parahaemolyticus [5]: decrease in the cytotoxicity | rtxA mRNA level ([6]; A600=0.5, vs 2% DMSO): significantly reduced | vvhA mRNA level ([6]; A600=0.5, vs 2% DMSO): significantly reduced | plpA mRNA level ([6]; A600=1.0, vs 2% DMSO): significantly reduced | viability (survival) of mice infected with Vibrio vulnificus [7]: significantly higher | hemolytic activity against erythrocytes [8]: concentration-dependent decrease
